# From patent publication US20160206633A1, “dhS1P AND USE OF SAME AS AN ANTICANCER THERAPEUTIC AND IMMUNOMODULATOR” (Penn State Research Foundation, Inc., priority 2013, published 2016)
# Tests used:
# [1] = tested on: sphingolipids in tumor and serum; experiment: Lipidomics (LC-MS3) of sphingolipids in tumors and serum of treated tumor-bearing mice; format: in vivo; conditions: generally
# Description: To explore how PhotoImmunoNanoTherapy could be regulating the immune system, an analysis of the “sphingolipidome” was studied in tumors and serum collected from treated tumor-bearing mice. As PhotoImmunoNanoTherapy modulated the immune system, and was efficacious in both athymic nude mice and BALB/cJ mice, in depth “sphingolipidomic” studies were performed in athymic nude mice bearing MDA-MB-231 tumors to focus more precisely on mediation of T-cell-independent immunity as well as BALB/cJ mice bearing 410.4 tumors (FIG. 5A-F). […] Intriguingly, an increase in tumor S1P was observed as a function of PhotoImmunoNanoTherapy in both models (FIG. 5D), as well as an increase in the precursor sphingosine in the athymic nude mouse model (MDA-MB-231 tumor) (FIG. 5C). […] Of particular interest, the mass levels of phosphorylated sphingolipid species were much higher in serum than in tumor tissue possibly reflective of a release of phosphorylated sphingolipids in response to PhotoImmunoNanoTherapy. Intriguingly, the increase in the amount of dhS1P was more dramatic than the increase in S1P. In the MDA-MB-231, BxPC-3, and SAOS-2-LM7 models there were a 65%, 79%, and 43% increase in dhS1P, respectively, and these compared with respective increases in S1P of only 29%, 27%, and 10%. […]
# [2] = tested on: splenic IMCs (Gr-1+CD11b+, MDSCs) from MDA-MB-231 tumor-bearing athymic nude mice; experiment: Isolated IMCs/MDSCs exposed in culture to dhS1P or S1P, multicolor flow cytometry; format: cell-based; conditions: 5 μM, 24-hour culture
# Description: (A) Splenic IMCs (Gr-1+CD11b+, also defined as MDSCs: myeloid-derived suppressor cells) were isolated from MDA-MB-231 tumor-bearing athymic nude mice and exposed to BSA, S1P (5 μM), or dhS1P (5 μM). Following 24-hour culture incubation, cells were labeled with specific antibodies and analyzed by multicolor flow cytometry (red: IMCs; blue: possible B-cells). (B) Splenic IMCs were isolated from MDA-MB-231 tumor-bearing athymic nude mice and cultured (5×10^4 cells/mL) in GEMM-supportive semi-solid media with BSA, S1P (5 μM), or dhS1P (5 μM). GEMM colonies (multipotent myeloid progenitor cells) were visualized and counted after 3 weeks of culture. ANOVA, *p<0.01 compared to no treatment or BSA-treatment, ***p<0.001 compared to S1P-treatment, n≧3. (C) Splenic hematopoietic progenitors (Lineage-Sca-1+CD117+) were isolated from MDA-MB-231 tumor-bearing athymic nude mice and exposed to BSA, S1P (5 μM), or dhS1P (5 μM). Following 24-hour culture incubation, cells were labeled with specific antibodies and analyzed by multicolor flow cytometry.
# The effect of dhS1P was further investigated at the level of MDSC-like cells, which were reduced as a function of treatment. The effects of dhS1P were directly compared with those of S1P as to delineate a difference in their physiological roles. Tumor-expanded IMCs/MDSCs were isolated and exposed in culture to either dhS1P or S1P. […]
structure (smiles),measurement,setting,value
"CCCCCCCCCCCCCCC[C@@H](O)[C@@H](N)COP(=O)(O)O [dhS1P, dihydrosphingosine-1-phosphate]",Serum levels measured in the experiments,[1],around 0.005 mg/kg
same,Population of cells displaying CD19 and CD45R B220 in isolated IMC culture,[2],promoted the expansion
same,Cells bearing the surface characteristics of IMCs/MDSCs (Gr-1+CD11b+),[2]; normal culture conditions,completely ablated
